In brackets after ≈: the same amount, converted by molar mass.
Legend:
[1] = system: canine malignant histiocytic cell line (DH82); parameters: method as in PMID 28738308; settings: read-out: IC50 DH82 proliferation (literature); cited from earlier work
Trichophyton rubrum = system: Trichophyton rubrum; parameters: method as in doi:10.1007/s10600-018-2281-7; settings: cited from earlier work
HT-29 = assay: SRB antiproliferative assay, HT-29; assay type: cell-based, human; settings: Homo sapiens, HT-29; SRB, 48 h, 1–100 µg·mL^−1; ND = not detected in the tested concentration range
Description: (§1) Anticancer activity was evaluated using the sulforhodamine B assay (SRB) on four different human colon cancer cell lines: HT-29, LS180, LoVo and LoVo/DX and green monkey kidney fibroblasts COS7 (ATCC, Manassas, VA, USA). Cell lines HT-29 and COS7 were cultured in α-MEM medium (IIET PAS, Wrocław, Poland), LS180 in OptiMEM medium (IIET PAS), LoVo and LoVo/DX in mixture of α-MEM and OptiMEM medium (1:1 (v:v)). Each culture medium was supplemented with 10% fetal bovine serum, 2 mM glutamine, 100 μg·mL^−1 penicillin, 100 μg·mL^−1 streptomycin and 0.25 μg·mL^−1 amphotericin (all supplements purchased from Gibco (Paisley, UK). Cells were incubated at 37 °C, 5% CO2 in HeraCELL 150i incubator (Thermo Fisher Scientific, Waltham, MA, USA).
(§2) For the SRB assay, cells were seeded onto 96-well plates (Sarstedt, Nümbrecht, Germany) at a density of 5·10^3/well and cultured overnight as described above. Then, the growth medium was gently removed and replaced with fresh medium, supplemented with aminochalcone derivatives in the concentration ranging from 1 µg·mL^−1 to 100 µg·mL^−1. All stock solutions were prepared in DMSO at a concentration of 10 mg·mL^−1. Cells were incubated for 48 h and then the SRB assay was performed as described previously. Each experiment was performed in quadruplicate. The final results were reported as the IC50 values calculated for three independent experiments. Cisplatin (Acros Organics, Waltham, MA, USA) and doxorubicin (Fisher BioReagents, Waltham, MA, USA) were used as positive controls of the test.

Fusarium linii KB-F1 [2] = assay: MIC evaluation (broth method), F. linii; assay type: cell-based; settings: Fusarium, KBF1, 48–72 h, read-out: Minimal inhibitory concentration F. linii
Description: (§3) Sterile 96-well microtiter plates (Sarstedt) with nutrient broth (for bacteria) (Biocorp) or YM medium (for yeast and filamentous fungi) were inoculated with a standardized cell suspension of bacteria and yeast or fungal spores of 10^5 cell·mL^−1, and supplemented with aminochalcones dissolved in DMSO. […] All analysis were conducted in triplicates. The plates were incubated at 30 °C (bacteria and yeast) or 25 °C (filamentous fungi) for 48–72 h. The results were measured with the Spark® Multimode Microplate Reader (Tecan, Männedorf, Switzerland) at a 560 nm wavelength. The minimal inhibitory concentration was defined as the lowest concentration of a tested compound that completely restricted the growth of the microorganism. In order to verify the obtained results, microbial cultures subjected to each concentration of aminochalcone were inoculated onto nutrient agar or YM plates and incubated as described above. The lack of growth on agar plate was a confirmation of the MIC of the tested compound. The resulting MIC values were compared with the reference substances: oxytetracycline (against bacteria), cycloheximide (against yeast) and nystatin (against fungi) (Sigma Aldrich).

Candida albicans DSM1386 = assay: MIC evaluation (broth method), C. albicans; assay type: cell-based; settings: DSM1386, broth method, 48–72 h, read-out: Minimal inhibitory concentration C. albicans
Description: as §3

[3] = system: Staphylococcus aureus DSM799; assay: Microbial growth curve screening, S. aureus; assay type: cell-based; settings: 0.1% (w/v)
Description: (§4) The antimicrobial screening tests were performed on two strains of bacteria: E. coli ATCC10536 and S. aureus DSM799, strain of yeast C. albicans DSM1386 and three strains of fungi: F. linii KB-F1, A. alternata CBS1526 and A. niger DSM1957. All microorganisms were obtained from the collection of the Faculty of Biotechnology and Food Microbiology, Wrocław University of Environmental and Life Sciences. The bacteria were cultured in nutrient broth (Biocorp, Warsaw, Poland), yeast and fungi in YM medium (3 g yeast extract, 3 g malt extract, 5 g bacteriological peptone and 10 g of glucose dissolved in 1 L of distilled water). The tests were carried out in 100-well microtiter plates. To each well 280 μL of culture medium, 10 μL of microorganism suspension and 10 μL of aminochalcone (1–18) dissolved in dimethyl sulfoxide (3% (w/v)) were added. The final concentration of the tested compound (1–18) was 0.1% (w/v). Each experiment were performed in 3 replications. The optical density of the cell suspension was measured on Bioscreen C (Automated Growth Curve Analysis System Lab System, Vantaa, Finland) at 560 nm automatically, at regular intervals of 30 min for 2–3 days. Cell cultures were maintained at 28 °C on a continuous shaker. To prepare the growth curves for each strain, the mean values of the absorbance in a function of time were used. The resulting antimicrobial activity was expressed as the increase of optical density (ΔOD) and was compared to that of the control cultures in the medium supplemented with dimethyl sulfoxide and also with reference substances: oxytetracycline (against bacteria), cycloheximide (against yeast) and nystatin (against fungi) (Sigma Aldrich).

[4] = system: Aspergillus niger DSM1957; assay: Microbial growth curve screening, A. niger; assay type: cell-based; settings: 0.1% (w/v)
Description: as §4

[5] = SRB assay, normal fibroblasts COS7; assay type: cell-based, green monkey; settings: green monkey, COS7 kidney fibroblasts (normal cell line), ND = not detected in the tested concentration range
Description: as §1, §2

LoVo/DX = assay: SRB antiproliferative assay, LoVo/DX; assay type: cell-based, human; settings: Homo sapiens, LoVo/DX, 48 h, 1–100 µg·mL^−1, ND = not detected in the tested concentration range
Description: as §1, §2

Fusarium linii KB-F1 [6] = assay: Microbial growth curve screening, F. linii; assay type: cell-based; settings: 0.1% (w/v), OD at 560 nm, control 1.95
Description: as §4

LoVo = assay: SRB antiproliferative assay, LoVo; assay type: cell-based, human; settings: Homo sapiens, LoVo, 48 h, 1–100 µg·mL^−1, ND = not detected in the tested concentration range
Description: as §1, §2

[7] = system: Escherichia coli ATCC10536; assay: MIC evaluation (broth method), E. coli; assay type: cell-based; settings: 48–72 h, read-out: Minimal inhibitory concentration E. coli
Description: as §3

[8] = system: Escherichia coli ATCC10536; assay: Microbial growth curve screening, E. coli; assay type: cell-based; settings: 0.1% (w/v), OD at 560 nm, control 1.61
Description: as §4

[9] = system: Alternaria alternata CBS1526; assay: Microbial growth curve screening, A. alternata; assay type: cell-based; settings: 0.1% (w/v)
Description: as §4

LS180 = assay: SRB antiproliferative assay, LS180; assay type: cell-based, human; settings: Homo sapiens, LS180, 48 h, 1–100 µg·mL^−1, ND = not detected in the tested concentration range
Description: as §1, §2

For `Nc1ccc(C(=O)/C=C/c2ccc(Cl)cc2)cc1` [4′-amino-4-chlorochalcone], the IC50 [1] is given as 31.4 µM.
In the case of `Cc1ccc(/C=C/C(=O)c2ccccc2N)cc1` [2′-amino-4-methylchalcone], the IC50 [1] is given as 38.2 µM.
In the case of `Nc1ccc(C(=O)/C=C/c2ccc(F)cc2)cc1` [4′-amino-4-fluorochalcone], the IC50 [1] is listed as 34.4 µM.
For `Nc1ccccc1C(=O)/C=C/c1cccc([N+](=O)[O-])c1` [2′-amino-3-nitro-chalcone], the “MIC80 Trichophyton rubrum (literature)” value (Trichophyton rubrum) is listed as 0.5 µg/mL (≈ 1.86 µM).
With `Nc1ccccc1C(=O)/C=C/c1ccc([N+](=O)[O-])cc1` [Compound 10, 2′-Amino-4-nitrochalcone] the IC50 (HT-29) was 3.24 ± 0.27 µg/mL (≈ 12.1 µM), the MIC (Fusarium linii KB-F1 [2]) was 0.5 µg/mL (≈ 1.86 µM) and the MIC (Candida albicans DSM1386) was 0.5 µg/mL (≈ 1.86 µM). The “∆OD S. aureus” value ([3]; OD at 560 nm, control 1.67) was 0.15, the “Lag-phase S. aureus” value ([3]; control 2.5 h) was 11.5 h and the “∆OD A. niger” value ([4]; OD at 560 nm, control 2.14) was 0.79. The “Lag-phase A. niger” value ([4]; control 11.0 h) was 23.0 h, the IC50 at 48 h [5] was 1.79 ± 0.14 µg/mL (≈ 6.67 µM) and the melting point was 114 to 117 °C. For the same compound, the IC50 (LoVo/DX) was 0.96 ± 0.12 µg/mL (≈ 3.58 µM), the “∆OD F. linii” value (Fusarium linii KB-F1 [6]) was 0.0 and the IC50 (LoVo) was 1.11 ± 0.07 µg/mL (≈ 4.14 µM). The MIC [7] was 0.25 µg/mL (≈ 0.932 µM), the “∆OD E. coli” value [8] was 0.0 and the “∆OD A. alternata” value ([9]; OD at 560 nm, control 1.86) was 0.20. The “Lag-phase A. alternata” value ([9]; control 16.5 h) was 0.5 h, the IC50 (LS180) was 2 ± 0.35 µg/mL (≈ 7.46 µM) and the “MIC80 Trichophyton rubrum (literature)” value (Trichophyton rubrum) was 0.5 µg/mL (≈ 1.86 µM).

Source: publication PMC6891756, “Synthesis and Biological Evaluation of Novel Aminochalcones as Potential Anticancer and Antimicrobial Agents” (Molecules, 2019)
